Test results: patent US5428048A, “Aryl-N-hydroxyureas as inhibitors of 5-lipoxygenase and anto-arteriosclerotic agents” (American Home Products Corporation, priority 1993, dated 1995)
One block for each molecule: values may come before it.

Assays:
[1] = system: LDL; conditions: in words; cited from earlier work
[2] = system: atherosclerotic lesions; conditions: WHHL rabbits, in words; cited from earlier work
[3] = system: LDL; conditions: in words; cited from earlier work; remark: listed apart in the source
[4] = target: T1, 5-Lipoxygenase (Homo sapiens, UniProt P09917); assay: Inhibition of 5-Lipoxygenase in Human Whole Blood (ionophore A23187-stimulated LTB4); type: cell-based
T1 construct: endogenous in cells; host or cells: whole blood of male human donors (results per 10^6 neutrophils)
T1 sequence (P09917 1-674): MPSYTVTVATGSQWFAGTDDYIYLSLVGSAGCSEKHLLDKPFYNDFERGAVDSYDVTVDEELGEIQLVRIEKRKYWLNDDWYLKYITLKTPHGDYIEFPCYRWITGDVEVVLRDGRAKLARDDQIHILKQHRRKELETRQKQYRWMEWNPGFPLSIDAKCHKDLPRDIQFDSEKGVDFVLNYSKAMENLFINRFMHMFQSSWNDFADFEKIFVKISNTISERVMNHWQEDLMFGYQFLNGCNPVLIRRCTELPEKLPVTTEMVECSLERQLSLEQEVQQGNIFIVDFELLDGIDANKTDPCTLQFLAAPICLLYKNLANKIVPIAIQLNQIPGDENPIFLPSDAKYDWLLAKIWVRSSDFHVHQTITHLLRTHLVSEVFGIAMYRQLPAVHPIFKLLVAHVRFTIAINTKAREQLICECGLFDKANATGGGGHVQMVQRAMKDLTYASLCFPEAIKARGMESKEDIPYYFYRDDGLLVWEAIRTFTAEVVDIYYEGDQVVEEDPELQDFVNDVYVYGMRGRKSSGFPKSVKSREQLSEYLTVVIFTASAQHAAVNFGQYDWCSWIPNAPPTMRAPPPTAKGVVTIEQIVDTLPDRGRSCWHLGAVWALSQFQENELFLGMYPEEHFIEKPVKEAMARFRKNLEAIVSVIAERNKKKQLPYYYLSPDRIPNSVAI
Description: 1. Inhibition of 5-Lipoxygenase in Human Whole Blood
Blood is obtained in 50-100 ml quantities from male donors. White blood cell counts and differentials are made. Two ml of blood are placed in a 15 ml polypropylene test tube. Test compounds are solubilized in dimethylsulfoxide and diluted in 1:10 in 10% bovine serum albumin in phosphate buffered saline, pH 7.4 resulting in a final dimethylsulfoxide concentration of 0.1% in the blood. Then, solutions of test compounds are added to the blood in a shaking water bath at 37° C. for 10 minutes prior to the addition of 30 μM calcium ionophore (A23187, Sigma). After ionophore administration, whole blood samples are mixed and incubated for 20 minutes at 37° C. in a shaking water bath. Incubation is terminated by placing samples in an ice bath and immediately adding ethylene glycol-bis-(β-aminoethyl ether)-N, N,N',N'-tetraacetic acid (10 mM). Samples are mixed and centrifuged at 1200×g for 15 minutes at […]. Preparation of samples for evaluation by RIA or ELISA is carded out by the following protocol. Plasma is removed from sample tubes, placed in 15 ml polypropylene test tubes containing 8 ml methanol, and then vortexed to precipitate protein. Samples are stored at -70° C. overnight. The next day, samples are centrifuged at 200×g for 15 minutes at 4° C. to pellet the precipitate. Samples are dried in a Savant SpeedVac Concentrator, Model SVC 200H, reconstituted to original volume with ice cold RIA or ELISA buffer, and stored at -70° C. until assayed. The assay for eicosanoids (LTB4, TxB2, and PGE2) is performed as described by the manufacturer of the [^3 H]-RIA kit or ELISA kit (LTB4 -Amersham, TxB2 and PGE2 - Caymen Chemical).
The total eicosanoid level in 2 ml of blood is calculated and reported as ng/10^6 neutrophils. Significance is determined by a one-way analysis of variance with least significant difference (LSD) comparisons to control (p≤0.05) and IC50 's (μM) are determined by regression analysis (Finney, 1978). Drug effects are expressed as percent change from control values.

[5] = system: Lipoxygenase; assay: Ex-Vivo Measurement of Lipoxygenase Inhibition in Orally Dosed Rats (LTB4 in A23187-stimulated blood); set-up: species or system Male Sprague Dawley rats; conditions: ex vivo rat, p.o., dose 10 (mg/kg), pretreatment 3 hr
Description: 2. […] After an interval of 3 or 6 hours, the rats were anesthetized with metofane (n =4/group) and blood collected in heparinized tubes. White blood cell counts and differentials were made. One ml of blood from each animal was placed in a 5 ml plastic tube in a shaker bath at 37° C. A23187 at a final concentration of 10 μM was added to the blood and the blood vortexed and incubated for 15 min at 37° C. with gentle shaking. Incubation was terminated by vortexing sample and centrifuging immediately at 1200 xG for 15 min at 4° C. The plasma was transferred to 15 ml plastic tubes each containing 8 ml of methanol to precipitate protein followed by vortexing. The samples were stored at -70° C. overnight and the next day the samples were centrifuged at 800 xG for 15 min to pellet the precipitate. The samples were dried in a Savant SpeedVac Concentrator Model SVC 200H and reconstituted to the original volume with cold RIA or ELISA buffer. The reconstituted samples were stored at -70° C. until assayed. The assay for LTB4 was perforated according to the directions of the [^3 H]RIA kit or ELISA kit (Seragen). The total metabolite level in 1 ml of blood is calculated and reported as ng/10^6 neutrophils. Significance is determined by a one-way analysis of variance with LSD comparisons to control (p<0.05).

[6] = system: Low Density Lipoprotein; assay: Inhibition of Copper Ion Mediated Oxidation of Low Density Lipoprotein; type: biochemical; conditions: Cu+2 mediated oxidation of rabbit or monkey LDL, 37° C., 90 minutes, 532 nm
Description: 5. Inhibition of Copper Ion Mediated Oxidation of Low Density Lipoprotein
In this in vitro assay, the inhibition of Cu^+2 mediated oxidation of rabbit or monkey LDL by an invention compound is determined spectrophotometricallly. Oxidation of LDL results in the formation of LDL-diene which absorbs light at 532 nm. Inhibition of oxidation of LDL leads to a decrease in absorbance at 532 nm.
Rabbit or monkey LDL is prepared according to the procedures of Havel, Eder and Gragdon, "The Distribution and Chemical Composition of Ultracentrifugally Separated Lipoproteins in Human Serum,: J. Clin. Invest. 34, 1345-1353 (1955) and Parhtasarathy, Wieland and Steriberg, "A Role for Endothelial Cell Lipoxygenase in the Oxidative Modification of Low Density Lipoprotein," Proc. Natl. Acad. Sci. USA 86, 1046-1050 (1989). Test compound solutions are prepared by dissolving the invention compounds in ethanol at concentrations up to 248 μM. The medium used is Dulbecco's phosphate buffered saline containing 0.5 mg/ml bovine serum albumin. For standards, 0 to 10 μl of an aqueous solution of 1,1,3,3-tetraethoxypropane (1 μmol/ml H2 O) in 4.1 ml of medium is used.
Test compound solution ([…]) is added to 4 ml of medium in incubation tubes. To each tube is added 10 μl of LDL solution and 25 μl of aqueous copper sulfate solution (1.32 mg/ml H2 O). The tubes are incubated at 37° C. for 90 minutes and the oxidation reaction quenched by addition of 1 ml of thiobarbituric acid solution (0.67% in 50% acetic acid). The tubes are heated at 90° C. for 1 hour, then chilled in an ice bath and the chromophore extracted into 2 ml of n-butanol. Absorbence is read at 532 nm and the results are reported as nmols of malondialdehyde equivalents.
Significant differences (p<0.05) are determined by the Dunnett T-test or by the Student-Newman-Keuls Test for significant differences between means. The assay is conducted using several concentrations [I] of the inhibitor test compounds. The LDL solution concentrations at different experiments were either 1.5 mg/ml, 2.5 mg/ml or 10.3 mg/ml. The IC50 is determined by non-linear regression, plotting log [I] vs. % inhibition. (Reference: K. Yagi, Biochemical Medicine 15,212-216 (1976)).

[7] = system: LT-dependent bronchoconstriction; assay: Inhibition of Bronchoconstriction in Guinea Pigs Induced by Exogenously Administered Antigen; type: in vivo, Male guinea pigs; conditions: 10 mg/kg i.v.
Description: 4. Inhibition of Brochoconstriction in Guinea Pigs Induced by Exogenously Administered Antigen
Male guinea pigs (Charles River, Wilmington, Mass.) were sensitized 3-4 weeks prior to antigen challenge by administration of 2 i.m. injections of ovalbumin, 1 into each hind limb (35 mg total). Sensitized animals (500-600 g) were fasted overnight prior to experimentation. Conscious animals were then dosed p.o. with drug or vehicle alone (0.5% Tween 80 in H2 O) at the indicated times prior to antigen challenge, or anesthetized animals were dosed i.v. with drug or vehicle alone (DMSO) 5 min prior to antigen challenge. Animals were anesthetized by urethane (2.8 g/kg i.p.). A carotid artery and jugular vein were cannulated to allow for the monitoring of blood pressure and the administration of drugs, respectively. The trachea was then cannulated and connected to a Harvard Apparatus rodent ventilator (S. Natick, Mass.). Spontaneous respiration was abolished by the administration of succinylcholine (2.5 mg/kg i.v.). The animals were then ventilated with room air at a rate of 65 breaths per min. Airway inflation pressure was measured using a Statham pressure transducer (Gould Instruments, Cleveland, Ohio) connected to the tracheal cannula via a side-arm and recorded on a Grass Instruments recorder (Quincy, Mass.). The tidal volume (approximately 10 cc/kg) was adjusted to give a baseline inflation pressure of 8-10 cm H2 O at end inspiration. Animals were then allowed 20 min to stabilize.
Following the stabilization period, animals were given i.v. injections of pyrilamine (5 mg/kg), propranolol (0.1 mg/kg) and indomethacin (10 mg/kg) at 15, 10 and 5 min, respectively, prior to antigen challenge. This pretreatment results in an LT-dependent bronchoconstriction following antigert challenge, which was accomplished by i.v. administration of ovalbumin (10 mg/kg). Only one bronchoconstriction per animal was induced. End-inspiratory inflation pressure (in cm H2 O over baseline) was measured at 5 min post-antigen challenge. A mean value and standard error for the % inhibition of control bronchoconstriction in each drug-treated group was then calculated.

Compound: CC(C)(Sc1cc(C(C)(C)C)c(O)c(C(C)(C)C)c1)Sc1cc(C(C)(C)C)c(O)c(C(C)(C)C)c1 [Probucol]
inhibition of Cu+2 mediated oxidative modification of LDL [1]: inhibits both cell mediated and Cu^+2 mediated oxidative modification of LDL
inhibition of formation of atherosclerotic lesions [2]: shown to inhibit the formation of atherosclerotic lesions in WHHL rabbits
inhibition of cell mediated oxidative modification of LDL [3]: inhibits both cell mediated and Cu^+2 mediated oxidative modification of LDL

inhibition at 10 µM ([4]; 10 μM): 83%
IC50 [6]: 180 nM
Compound: Cc1oc(-c2cc(C(C)(C)C)c(O)c(C(C)(C)C)c2)nc1CCOc1ccc(CN(O)C(N)=O)cc1 [Example 10]
% Inhibition of LTB4 [5]: 44%

inhibition at 1 µM ([4]; 1 μM): 57%
Compound: NC(=O)N(O)Cc1ccc(OCCc2csc(-c3ccc(C(F)(F)F)cc3)n2)cc1 [Example 19, 1-Hydroxy-1-[4-[2-[2-(4-trifluoromethyl-phenyl)-thiazol-4-yl]-ethoxy]-benzyl]-urea]
Bronchoconstriction % Inhibition [7]: 21%
